Consider 22 compounds from patent US12234205B1, “Sulfonylhydrazide derivatives as anticancer agents” (KING SAUD UNIVERSITY, priority 2024, dated 2025).

One experiment has as its target T1, hFAAH (Homo sapiens, UniProt O00519).
T1 construct: purchased Cayman Chemicals 10005196
T1 sequence (O00519 1-579): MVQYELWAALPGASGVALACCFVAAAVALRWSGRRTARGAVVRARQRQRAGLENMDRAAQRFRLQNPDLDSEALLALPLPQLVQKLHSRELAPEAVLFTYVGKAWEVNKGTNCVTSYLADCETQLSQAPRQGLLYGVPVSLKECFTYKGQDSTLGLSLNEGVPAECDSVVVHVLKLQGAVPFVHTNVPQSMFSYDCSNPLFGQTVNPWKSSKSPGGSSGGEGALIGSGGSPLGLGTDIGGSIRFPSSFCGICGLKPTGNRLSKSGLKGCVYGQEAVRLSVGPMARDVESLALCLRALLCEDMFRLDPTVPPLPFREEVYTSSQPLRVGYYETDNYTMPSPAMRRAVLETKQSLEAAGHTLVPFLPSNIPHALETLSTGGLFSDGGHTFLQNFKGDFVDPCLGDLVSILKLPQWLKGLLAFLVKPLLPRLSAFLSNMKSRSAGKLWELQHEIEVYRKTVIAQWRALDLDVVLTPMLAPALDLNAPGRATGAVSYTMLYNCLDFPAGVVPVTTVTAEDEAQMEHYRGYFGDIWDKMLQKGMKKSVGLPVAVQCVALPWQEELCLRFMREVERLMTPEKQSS
Put plainly: Inhibition of FAAH activity (Cayman FAAH inhibitor screening assay kit, AMC-arachidonoyl amide hydrolysis, fluorescence). The class given is biochemical. Particulars: 30 min preincubation; for inhibition at 10 µM: 10 μM compound, 37° C., triplicate; for IC50: only compounds with more than 50% inhibition at 10 μM. The method, then:
Inhibition of FAAH Activity
Assay was performed using kits (#10005196) purchased from Cayman Chemicals (Anne Arbor, MI, USA). Ibuprofen was acquired as a generous gift from Tabuk Pharmaceuticals (Tabuk, SA). Doxorubicin was purchased from Sigma (St. Luis, MI, USA). Assay was performed using the FAAH inhibitor screening assay kit from Cayman Chemicals according to the manufacturer's protocol. Release of the fluorescent product, 7-amino-4-methylcoumarin (AMC), from the hydrolysis of AMC-arachidonoyl amide, mediated by FAAH at 37° C., was recorded using a plate reader with an excitation filter of 340-360 nm and an emission filter of 450-465 nm. Inhibitors were preincubated for 30 min at indicated concentrations with the enzyme prior to the addition of substrate to initiate the reaction. Change in fluorescence with time was taken as enzyme activity and the extent of inhibition was calculated from the initial rates. Final DMSO concentration was kept at 2% (v/v) in the assay. Each concentration was repeated three times (Triplicate) to conform to statistical accuracy. Percentage of inhibition at 10 μM was measured for all compounds. Compounds which were able to inhibit the enzyme activity more than 50% at 10 μM were considered eligible for IC50 calculations. For IC50, the inhibition assay was performed at 1.0, 0.1, 0.01, 0.001 and 0.0001 μM concentration of compound under assay. The hFAAH inhibition was calculated as compared to activity observed with vehicle. IC50 values were calculated using Prism v.7.02 for each column separately (singlet concentration). The compound's IC50 was calculated using InStat v.3 software (GraphPad Software, San Diego, CA) which was also used for calculation of standard error of means (SEM). Referring to FIG. 1, inhibition of hFAAH by compound 10 is shown.
(§1) IC50 is the concentration at which 50% of the cells were inhibited after treatment with a target compound. SEM is the standard error of means.

The test system of another experiment is A549 NSCLC cell line. Put plainly: Inhibition of A549 NSCLC cell line (sulforhodamine B assay, 72 h). Particulars: Homo sapiens, SRB assay, 72 hours exposure. The format is cell-based. The method, then:
as §1
Inhibition of A549 NSCLS (Non-Small Cells Lung Cancer) Cell Line
A549 cell lines were obtained from the National Cancer Institute (Cairo, Egypt) and maintained in Roswell Park Memorial Institute medium (RPMI1640) (Invitrogen, Carlsbad, CA, USA) supplemented with […] of streptomycin, 100 units/mL of penicillin and 10% of heat-inactivated fetal bovine serum (Invitrogen) in a humidified, 5% (v/v) CO2 atmosphere at 37° C. The sulforhodamine B (SRB) assays were performed according to Skehan et al 20, 21. Briefly, exponentially growing cells were trypsinized, counted and seeded at the appropriate densities (5000 cells/100 μL/well) into 96-well microtiter plates. Cells were incubated in a humidified atmosphere at 37° C. for 24 h. Then, the cells were exposed to different compounds at the desired concentrations, (0.01, 0.03, 0.1, 0.3, 1, 3, 10, 30 and 100 μM) or to 1% dimethyl sulfoxide (DMSO) for 72 hours. At the end of the treatment period, the media were removed, and the cells were fixed with 10% trichloroacetic acid at 4° C. for 1 h. The cells then were washed with tap water four times and incubated with SRB 0.4% for 30 min. Excess dye was removed by washing repeatedly with 1% (vol/vol) acetic acid. The protein-bound dye was dissolved in 10 mM Tris base solution for OD determination at 510 nm using a SpectraMax plus Microplate Reader (Molecular Devices, CA). Cell viability was expressed relative to the untreated control cells. Statistical analyses were performed using legally licensed GraphPad Prism™ and Instat™ software (GraphPad Inc., La Jolla, CA, USA).
On the technique in general: The SRB assay estimates cell density from bound dye.

Regarding `CC(C)Cc1ccc(C(C)C(=O)NNS(=O)(=O)c2ccc(C(F)(F)F)cc2)cc1` (stereo not drawn) [Compound 8, N′-(2-(4-isobutylphenyl)propanoyl)-4-(trifluoromethyl) benzene sulfonohydrazide], on hFAAH, 10 µM produced 74% inhibition and inhibition was half-maximal at 1.2 µM (IC50). Besides, in the experiment with A549 NSCLC cell line, half-maximal inhibition (IC50) was put at 40.1 µM.
On to `CC(C)Cc1ccc(C(C)C(=O)NNS(=O)(=O)c2ccc(Br)s2)cc1` (stereo not drawn) [Compound 16, 5-Bromo-N′-(2-(4-isobutylphenyl)propanoyl) thiophene-2-sulfonohydrazide], for which the inhibition at 10 µM on hFAAH was found to be 28.4%. Moreover, the IC50 with A549 NSCLC cell line is over 100 µM.
The like results for `CC(C)Cc1ccc(C(C)C(=O)NNS(=O)(=O)c2ccc(C(F)(F)F)nc2)cc1` (stereo not drawn) [Compound 19, N′-(2-(4-isobutylphenyl)propanoyl)-6-(trifluoromethyl)pyridine-3sulfonohydrazide] were, in that order, 40.5% and over 100 µM.
`CC(=O)c1ccc(S(=O)(=O)NNC(=O)C(C)c2ccc(CC(C)C)cc2)cc1` (stereo not drawn) [Compound 1, 4-acetyl-N′-(2-(4-isobutylphenyl)propanoyl)benzenesulfonohydrazide] gave an inhibition at 10 µM against hFAAH of 33.6%. The IC50 in the experiment with A549 NSCLC cell line is over 100 µM.
Compound `COc1ccc(S(=O)(=O)NNC(=O)C(C)c2ccc(CC(C)C)cc2)cc1OC` (stereo not drawn) [Compound 14, N′-(2-(4-isobutylphenyl)propanoyl)-3,4-dimethoxybenzene sulfonohydrazide] yielded an inhibition at 10 µM on hFAAH of 23.8%. Also, the IC50 in the experiment on A549 NSCLC cell line was over 100 µM.
For `Cc1ccc(S(=O)(=O)NNC(=O)C(C)c2ccc(CC(C)C)cc2)s1` (stereo not drawn) [Compound 17, N′-(2-(4-isobutylphenyl)propanoyl)-5-methylthiophene-2-sulfonohydrazide], in that order: 7.44% and over 100 µM.
For `CC(C)Cc1ccc(C(C)C(=O)NNS(=O)(=O)c2ccc(Br)cc2)cc1` (stereo not drawn) [Compound 13, 4-Bromo-N′-(2-(4-isobutylphenyl)propanoyl)benzenesulfonohydrazide], in that order: 48.7% and over 100 µM.
With `CC(C)Cc1ccc(C(C)C(=O)NNS(=O)(=O)c2ccc(-c3ccccc3)cc2)cc1` (stereo not drawn) [Compound 10, N′-(2-(4-isobutylphenyl)propanoyl)-[1, 1′-biphenyl]-4-sulfonohydrazide], on hFAAH, the inhibition at 10 µM was 98.1% and 0.0056 µM corresponded to half-maximal inhibition (IC50). Further, in the experiment with A549 NSCLC cell line, inhibition was half-maximal at 0.291 µM (IC50).
With `CC(C)Cc1ccc(C(C)C(=O)NNS(=O)(=O)c2cccc(C(F)(F)F)c2)cc1` (stereo not drawn) [Compound 7, N′-(2-(4-isobutylphenyl)propanoyl)-3-(trifluoromethyl) benzene sulfonohydrazide], at hFAAH, testing at 10 µM gave an inhibition of 36.1%. Besides, the IC50 in the experiment on A549 NSCLC cell line was over 100 µM.
At hFAAH, `CC(C)Cc1ccc(C(C)C(=O)O)cc1` (stereo not drawn) [Ibuprofen, reference compound] returned an inhibition at 10 µM of 10%.
In the case of `CC(C)Cc1ccc(C(C)C(=O)NNS(=O)(=O)c2ccccc2)cc1` (stereo not drawn) [Compound 9, N′-(2-(4-isobutylphenyl)propanoyl) benzenesulfonohydrazide], on hFAAH, at 10 µM the inhibition was 99.9% and half-maximal inhibition (IC50) was put at 0.144 µM. In the experiment with A549 NSCLC cell line, this compound had an IC50 of 46.4 µM.
As for `COc1ccc(-c2ccc(S(=O)(=O)NNC(=O)C(C)c3ccc(CC(C)C)cc3)cc2)cc1` (stereo not drawn) [Compound 12, N′-(2-(4-isobutylphenyl)propanoyl)-4′-methoxy-[1, 1′-biphenyl]-4sulfonohydrazide], testing at 10 µM on hFAAH gave an inhibition of 99%. Also, the IC50 is 0.141 µM against hFAAH and 11.7 µM in the experiment with A549 NSCLC cell line.
The like results for `CC(C)Cc1ccc(C(C)C(=O)NNS(=O)(=O)c2ccc3ccccc3c2)cc1` (stereo not drawn) [Compound 4, N′-(2-(4-isobutylphenyl)propanoyl)naphthalene-2-sulfonohydrazide] were, in that order, 87.8%, 0.179 µM and 53 µM.
As to `CC(C)Cc1ccc(C(C)C(=O)NNS(=O)(=O)C(Br)c2ccccc2)cc1` (stereo not drawn) [Compound 6, 1-Bromo-N′-(2-(4-isobutylphenyl)propanoyl)-1-phenylmethane sulfonohydrazide], on hFAAH, the inhibition at 10 µM amounted to 20.6%. Moreover, the concentration for half-maximal inhibition (IC50) with A549 NSCLC cell line is over 100 µM.
On hFAAH, `CC(C)Cc1ccc(C(C)C(=O)NNS(=O)(=O)c2cccs2)cc1` (stereo not drawn) [Compound 15, N′-(2-(4-isobutylphenyl)propanoyl)thiophene-2-sulfonohydrazide] gave an inhibition at 10 µM of 86.5% and a concentration for half-maximal inhibition (IC50) of 0.672 µM. Besides, in the experiment on A549 NSCLC cell line, the IC50 was over 100 µM.
For `CC(C)Cc1ccc(C(C)C(=O)NNS(=O)(=O)c2c(C(C)C)cc(C(C)C)cc2C(C)C)cc1` (stereo not drawn) [Compound 5, N′-(2-(4-isobutylphenyl)propanoyl)-2,4, 6 triisopropyl benzene sulfonohydrazide], the inhibition at 10 µM at hFAAH is 8.85%. In the experiment with A549 NSCLC cell line, this compound returned an IC50 of 73 µM.
As to `Cc1ccc(S(=O)(=O)NNC(=O)C(C)c2ccc(CC(C)C)cc2)cc1` (stereo not drawn) [Compound 2, N′-(2-(4-isobutylphenyl)propanoyl)-4-methylbenzene sulfonohydrazide], at 10 µM the inhibition at hFAAH was 63.5%. For the same compound, the IC50 on hFAAH was 1.46 µM; in the experiment on A549 NSCLC cell line, over 100 µM.
The like results for `Cc1ccc(-c2ccc(S(=O)(=O)NNC(=O)C(C)c3ccc(CC(C)C)cc3)cc2)cc1` (stereo not drawn) [Compound 11, N′-(2-(4-isobutylphenyl)propanoyl)-4′-methyl-[1, 1′-biphenyl]-4-sulfonohydrazide] were, in that order, 95.3%, 0.072 µM and 16 µM.
For `CC(C)Cc1ccc(C(C)C(=O)NNS(=O)(=O)c2cccnc2)cc1` (stereo not drawn) [Compound 18, N′-(2-(4-isobutylphenyl)propanoyl)pyridine-3-sulfonohydrazide], in that order: 58.6%, 4.01 µM and over 100 µM.
`CC(C)Cc1ccc(C(C)C(=O)NNS(=O)(=O)Cc2ccccc2)cc1` (stereo not drawn) [Compound 20, N′-(2-(4-isobutylphenyl)propanoyl)-1-phenylmethanesulfonohydrazide] displayed an inhibition at 10 µM at hFAAH of 44.2%. For the same compound, the IC50 in the experiment with A549 NSCLC cell line was over 100 µM.
Regarding `COc1cccc2c1C(=O)c1c(O)c3c(c(O)c1C2=O)C[C@@](O)(C(=O)CO)C[C@@H]3O[C@H]1C[C@H](N)[C@H](O)[C@H](C)O1` [Doxorubicin, reference compound], the IC50 in the experiment with A549 NSCLC cell line worked out at 2.28 µM.
`CC(C)Cc1ccc(C(C)C(=O)NNS(=O)(=O)c2ccccc2[N+](=O)[O-])cc1` (stereo not drawn) [Compound 3, N′-(2-(4-isobutylphenyl)propanoyl)-2-nitrobenzenesulfonohydrazide] came in with an inhibition at 10 µM against hFAAH of 45.5%. Moreover, the IC50 in the experiment with A549 NSCLC cell line came to 55.6 µM.

Usually inhibition stands for the relative decrease from the control value, in per cent. Read a high inhibition as a strong effect. Usually IC50 stands for the midpoint of a concentration-inhibition curve.
